Measured values from patent publication US9284333B2, “Fused pyrroledicarboxamides and their use as pharmaceuticals” (SANOFI, priority 2012, dated 2016).
pIC50: −log10 of the molar value.

Each compound was assayed against Human TASK-1 channels (Homo sapiens (Human), UniProt O14649) (assay: Determination of the activity on the TASK-1 channel in Xenopus oocytes (two-microelectrode voltage clamp)). Settings: compound concentration 5 μM.
Assay type: cell-based
Summary of the method: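 Xenopus oocytes were injected with human TASK-1 cRNA and recorded two days later by two-microelectrode voltage clamp, holding at −90 mV with 500 ms steps to 40 mV. Superfusion used ND96, pH 7.4, at room temperature, with rising compound concentrations; percentage inhibition of control current was fitted to a dose-response curve for IC50.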

Chain of Human TASK-1 channels (O14649 whole entry): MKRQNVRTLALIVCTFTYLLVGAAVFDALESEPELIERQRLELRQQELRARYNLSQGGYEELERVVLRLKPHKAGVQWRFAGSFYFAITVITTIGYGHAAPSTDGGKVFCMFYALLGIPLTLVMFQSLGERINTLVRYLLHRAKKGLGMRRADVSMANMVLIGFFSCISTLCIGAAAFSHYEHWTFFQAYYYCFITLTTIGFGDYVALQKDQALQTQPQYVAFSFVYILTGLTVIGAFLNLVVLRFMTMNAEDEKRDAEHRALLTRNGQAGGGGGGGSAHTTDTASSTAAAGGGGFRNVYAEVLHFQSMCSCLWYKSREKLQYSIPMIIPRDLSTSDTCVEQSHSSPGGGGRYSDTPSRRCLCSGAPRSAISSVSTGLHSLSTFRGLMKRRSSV

inhibition at 5 µM | SMILES
55% | CC[C@@H](NC(=O)c1cc(C(=O)NCC2(c3ccccc3)CCCC2)n2c1CCCC2)c1ccccc1 [16ng, 5,6,7,8-Tetrahydro-indolizine-1,3-dicarboxylic acid 3-[(1-phenyl-cyclopentylmethyl)-amide] 1-[((R)-1-phenyl-propyl)-amide]]

Same assay, conditions: human TASK-1 expressed in Xenopus oocytes, room temperature; read-out: IC50 value for TASK-1 inhibition

pIC50 | SMILES
6.74 | CC[C@@H](NC(=O)c1cc(C(=O)Nc2ccc(F)cn2)n2c1COCC2)c1ccccc1 [16hc, 3,4-Dihydro-1H-pyrrolo[2,1-c][1,4]oxazine-6,8-dicarboxylic acid 6-[(5-fluoro-pyridin-2-yl)-amide] 8-[((R)-1-phenyl-propyl)-amide]]
5.70 | CC[C@@H](NC(=O)c1cc(C(=O)N2CCOCC2)n2c1CCCC2)c1ccccc1 [16nc, 3-(Morpholine-4-carbonyl)-5,6,7,8-tetrahydro-indolizine-1-carboxylic acid ((R)-1-phenyl-propyl)-amide]
6.82 | CC[C@@H](NC(=O)c1cc(C(=O)N2CCC[C@@H]2C)n2c1COCC2)c1cccs1 [16rc, 6-((S)-2-Methyl-pyrrolidine-1-carbonyl)-3,4-dihydro-1H-pyrrolo[2,1-c][1,4]oxazine-8-carboxylic acid ((R)-1-thiophen-2-yl-propyl)amide]
7.13 | CC[C@@H](NC(=O)c1cc(C(=O)N[C@H](C)C2CC2)n2c1CCCC2)c1ccccc1 [16mw, 5,6,7,8-Tetrahydro-indolizine-1,3-dicarboxylic acid 3-[((R)-1-cyclopropyl-ethyl)-amide] 1-[((R)-1-phenyl-propyl)-amide]]
6.52 | O=C(N[C@@H](c1ccc(F)cc1)C1CC1)c1cc(C(=O)N2CCCC2)n2c1COCC2 [16dg, 6-(Pyrrolidine-1-carbonyl)-3,4-dihydro-1H-pyrrolo[2,1-c][1,4]oxazine-8-carboxylic acid [(R)-cyclopropyl-(4-fluoro-phenyl)-methyl]-amide]
6.37 | CC[C@@H](NC(=O)c1cc(C(=O)NCc2ccccc2S(C)(=O)=O)n2c1COCC2)c1ccccc1 [16gx, 3,4-Dihydro-1H-pyrrolo[2,1-c][1,4]oxazine-6,8-dicarboxylic acid 6-(2-methanesulfonyl-benzylamide) 8-[((R)-1-phenyl-propyl)-amide]]
6.51 | CC[C@@H](NC(=O)c1cc(C(=O)NCc2cnccn2)c2n1CCOC2)c1ccc(F)cc1Cl [16ko, 3,4-Dihydro-1H-pyrrolo[2,1-c][1,4]oxazine-6,8-dicarboxylic acid 6-{[(R)-1-(2-chloro-4-fluoro-phenyl)-propyl]-amide} 8-[(pyrazin-2-ylmethyl)-amide]]
6.08 | CC[C@@H](NC(=O)c1cc(C(=O)N2CC[C@@H](OC)C2)n2c1CCCC2)c1ccccc1 [16mg, 3-((R)-3-Methoxy-pyrrolidine-1-carbonyl)-5,6,7,8-tetrahydro-indolizine-1-carboxylic acid ((R)-1-phenyl-propyl)-amide]
7.40 | CC[C@@H](NC(=O)c1cc(C(=O)N[C@H](CC)c2cccc(OC)n2)n2c1COCC2)c1ccccc1 [16ic, 3,4-dihydro-1H-pyrrolo[2,1-c][1,4]oxazine-6,8-dicarboxylic acid 6-{[(R)-1-(6-methoxy-pyridin-2-yl)-propyl]-amide} 8-[((R)-1-phenyl-propyl)-amide]]
5.77 | CC[C@@H](NC(=O)c1cc(C(=O)NCc2ccc(CC(=O)OC)cc2)n2c1COCC2)c1ccccc1 [16is, [4-({[8-((R)-1-Phenyl-propylcarbamoyl)-3,4-dihydro-1H-pyrrolo[2,1-c][1,4]oxazine-6-carbonyl]-amino}-methyl)-phenyl]-acetic acid methyl ester]
6.80 | CC[C@@H](NC(=O)c1cc(C(=O)N2CCC[C@@H]2C)n2c1COCC2)c1ccc(F)c(C(F)(F)F)c1 [16bo, 6-((S)-2-Methyl-pyrrolidine-1-carbonyl)-3,4-dihydro-1H-pyrrolo[2,1-c][1,4]oxazine-8-carboxylic acid [(R)-1-(4-fluoro-3-trifluoromethyl-phenyl)-propyl]-amide]
7.40 | CC[C@@H](NC(=O)c1cc(C(=O)N2CCC[C@@H]2C)n2c1COCC2)c1cc(F)ccc1Cl [16w, 6-((S)-2-Methyl-pyrrolidine-1-carbonyl)-3,4-dihydro-1H-pyrrolo[2,1-c][1,4]oxazine-8-carboxylic acid [(R)-1-(2-chloro-5-fluoro-phenyl)-propyl]-amide]
6.08 | CC[C@@H](NC(=O)c1cc(C(=O)N2CCC[C@@H]2C)n2c1COCC2)c1cnc(C(F)(F)F)c(F)c1 [16ck, 6-((S)-2-Methyl-pyrrolidine-1-carbonyl)-3,4-dihydro-1H-pyrrolo[2,1-c][1,4]oxazine-8-carboxylic acid [(R)-1-(5-fluoro-6-trifluoromethyl-pyridin-3-yl)-propyl]-amide]
7.00 | CC[C@@H](NC(=O)c1cc(C(=O)N2CCC[C@@H]2C)n2c1COCC2)c1ncccc1Cl [16pf]
6.80 | CC[C@@H](NC(=O)c1cc(C(=O)N(C)CCOC)n2c1CCCC2)c1ccccc1 [16mh, 5,6,7,8-Tetrahydro-indolizine-1,3-dicarboxylic acid 3-[(2-methoxy-ethyl)-methyl-amide] 1-[((R)-1-phenyl-propyl)-amide]]
6.25 | CC[C@@H](NC(=O)c1cc(C(=O)NC(C)c2ncccn2)n2c1COCC2)c1ccccc1 (stereo partly drawn) [16hd, 3,4-Dihydro-1H-pyrrolo[2,1-c][1,4]oxazine-6,8-dicarboxyli cacid 8-[((R)-1-phenyl-propyl)-amide] 6-[(1-pyrimidin-2-yl-ethyl)-amide]]
5.36 | CC[C@@H](NC(=O)c1cc(C(=O)N[C@@H](CO)C(C)C)n2c1COCC2)c1ccccc1 [16jj, 3,4-Dihydro-1H-pyrrolo[2,1-c][1,4]oxazine-6,8-dicarboxylic acid 6-[((R)-1-hydroxymethyl-2-methyl-propyl)-amide] 8-[((R)-1-phenyl-propyl)-amide]]
6.31 | CC[C@@H](NC(=O)c1cc(C(=O)NCCc2ccccn2)n2c1COCC2)c1ccccc1 [16gm, 3,4-Dihydro-1H-pyrrolo[2,1-c][1,4]oxazine-6,8-dicarboxylic acid 8-[((R)-1-phenyl-propyl)-amide] 6-[(2-pyridin-2-yl-ethyl)-amide]]
6.59 | CC[C@@H](NC(=O)c1cc(C(=O)NCC2CC2)n2c1CCCC2)c1ccccc1 [16mf, 5,6,7,8-Tetrahydro-indolizine-1,3-dicarboxylic acid 3-cyclopropylmethyl-amide 1-[((R)-1-phenyl-propyl)-amide]]
6.92 | CC[C@@H](NC(=O)c1cc(C(=O)NCC2CCCC2)n2c1CCCC2)c1ccccc1 [16my, 5,6,7,8-Tetrahydro-indolizine-1,3-dicarboxylic acid 3-cyclopentylmethyl-amide 1-[((R)-1-phenyl-propyl)-amide]]
5.92 | CC[C@@H](NC(=O)c1cc(C(=O)N2CCC[C@@H]2C)n2c1COCC2)c1ccncc1Cl [16bw, 6-((S)-2-Methyl-pyrrolidine-1-carbonyl)-3,4-dihydro-1H-pyrrolo[2,1-c][1,4]oxazine-8-carboxylic acid [(R)-1-(3-chloro-pyridin-4-yl)-propyl]-amide]
6.35 | CC[C@@H](NC(=O)c1cc(C(=O)N2CCCC2C2CC2)n2c1COCC2)c1ccccc1 (stereo partly drawn) [16gb, 6-(2-Cyclopropyl-pyrrolidine-1-carbonyl)-3,4-dihydro-1H-pyrrolo[2,1-c][1,4]oxazine-8-carboxylic acid ((R)-1-phenyl-propyl)-amide]
